Patent publication US20040019429A1, “Methods and systems for analyzing complex biological systems” (priority 2001, published 2004)

Assays:
[1] = system: Arabidopsis thaliana plants; assay: SOA1 phenotypic analysis of herbicide-treated plants (MIC, Tmic, leaf traits, symptom class); type: in vivo; settings: for leafCurling (Dev.) / leafTwisting (Dev.) / leafWidth (Dev.) / matureLeafAnthocyanins (Dev.) / matureLeafChlorosis (Dev.) / matureLeafNecrosis (Dev.) / newLeafAnthocyanins (Dev.) / newLeafChlorosis (Dev.) / newLeafNecrosis (Dev.) / pointedLeaves (Dev.): numeric value standardized to mock treated plants; for leafCurling (Dev.) / leafTwisting (Dev.) / leafWidth (Dev.) / matureLeafAnthocyanins (Dev.) / matureLeafChlorosis (Dev.) / matureLeafNecrosis (Dev.) / newLeafAnthocyanins (Dev.) / newLeafChlorosis (Dev.) / newLeafNecrosis (Dev.) / pointedLeaves (Dev.) / tMic (Dev.): SOA1; for tMic (Dev.): score for time to full range of symptoms at the MIC; for Characteristic symptoms of treated plants (in words): SOA1 phenotypic analysis
[2] = system: Saccharomyces cerevisiae wild type strain BY4743; assay: AF1 yeast metabolite analysis by GC-MS and LC-MS after antifungal drug treatment; type: cell-based

| Structure (SMILES) | leafCurling (Dev.) [1] | leafTwisting (Dev.) [1] | leafWidth (Dev.) [1] | matureLeafAnthocyanins (Dev.) [1] | matureLeafChlorosis (Dev.) [1] | matureLeafNecrosis (Dev.) [1] | newLeafAnthocyanins (Dev.) [1] | newLeafChlorosis (Dev.) [1] | newLeafNecrosis (Dev.) [1] | pointedLeaves (Dev.) [1] | tMic (Dev.) [1] | Characteristic symptoms of treated plants (in words) [1] | other results |
| --- | --- | --- | --- | --- | --- | --- | --- | --- | --- | --- | --- | --- | --- |
| O=C(O)COc1ccc(Cl)cc1Cl [2,4-D] | 1 | 2 | −1 | 1 | 2 | 0 | 0 | 1 | 0 | 0 | 2 | – | Symptom Class ([1]; three-week-old Arabidopsis plants treated with herbicide): 5 |
| O=C(O)c1cc(Oc2ccc(C(F)(F)F)cc2Cl)ccc1[N+](=O)[O-] [Acifluorfen] | – | – | – | – | – | – | – | – | – | – | – | Necrotic leaf flecks | – |
| CCNc1nc(Cl)nc(NC(C)C)n1 [Atrazine] | – | – | – | – | – | – | – | – | – | – | – | rapid and widespread leaf necrosis | – |
| CC(C)N1C(=O)c2ccccc2NS1(=O)=O [Bentazon] | – | – | – | – | – | – | – | – | – | – | – | rapid and widespread leaf necrosis | – |
| COC(=O)c1cc(Oc2ccc(Cl)cc2Cl)ccc1[N+](=O)[O-] [Bifenox] | – | – | – | – | – | – | – | – | – | – | – | Necrotic leaf flecks | – |
| c1cc[n+]2c(c1)-c1cccc[n+]1CC2 [Diquat] | 2 | 0 | −2 | 0 | 1 | 4 | 0 | 1 | 4 | 1 | 2 | rapid and widespread leaf necrosis | – |
| CN(C)C(=O)Nc1ccc(Cl)c(Cl)c1 [Diuron] | 1 | 0 | −2 | 0 | 2 | 4 | newLeafAnthocyanins 0 | 2 | 4 | 1 | 1 | rapid and widespread leaf necrosis | – |
| OC(Cn1cncn1)(Cn1cncn1)c1ccc(F)cc1F [Fluconazole] | – | – | – | – | – | – | – | – | – | – | – | – | Fold Change, abscisic acid ([2]; platform LC): 0; Fold Change, adenosine ([2]; platform LC): 0 |
| CCc1cnc(C2=NC(C)(C(C)C)C(=O)N2)c(C(=O)O)c1 (stereo not drawn) [Imazethapyr] | – | – | – | – | – | – | – | – | – | – | – | anthocyanin accumulation in the older leaves accompanied by chlorosis of the newly emerging leaves | – |
| CC(=O)N1CCN(c2ccc(OCC3COC(Cn4ccnc4)(c4ccc(Cl)cc4Cl)O3)cc2)CC1 (stereo not drawn) [Ketoconazole] | – | – | – | – | – | – | – | – | – | – | – | – | # Compounds perturbed by treatment ([2]; P < 0.1, 2X MIC, two hours): 15 |
| CSc1nnc(C(C)(C)C)c(=O)n1N [Metribuzin] | – | – | – | – | – | – | – | – | – | – | – | rapid and widespread leaf necrosis | – |
| C[n+]1ccc(-c2cc[n+](C)cc2)cc1 [Paraquat] | 2 | 0 | −1 | 0 | 1 | 4 | 0 | 1 | 4 | 1 | 2 | rapid and widespread leaf necrosis | – |
